Assay results as given in US20040224958A1, “Pyridopyrimidinone derivatives for treatment of neurodegenerative disease” (priority 2000, published 2004).
Where two headings read alike, the source gives them in different places.

Assays:
Cdk5/p25 = Cdk5/p25 (Homo sapiens, UniProt Q00535); assay: Cyclin-Dependent Kinase 5 (cdk5) Assay; type: biochemical
Description: Cyclin-Dependent Kinase 5 (cdk5) Assay
Enzyme assays for IC50 determinations and kinetic evaluation were performed in 96-well filter plates (Millipore MAPH NOB 10). […] All components except histone and ATP were added to wells, and the plate was placed on a shaker for 5 minutes. The reaction was started by adding histone and [^32P]ATP, and the plate was shaken at 30° C. for 45 minutes. The reaction was terminated by addition of 0.1 mL of 150 mM phosphoric acid. The plate was kept at 4° C. for 30 minutes to allow substrate to precipitate. The wells were then washed three times with 0.2 mL of 75 mM phosphoric acid and ^32P incorporation was determined with a beta plate counter (Wallac Inc, Gaithersburg, Md.).

cdk4/D = cdk4/D (Homo sapiens, UniProt P11802); assay: Cyclin-Dependent Kinase 4 (cdk4) Assay; type: biochemical
cdk4/D, sequence (P11802 whole entry): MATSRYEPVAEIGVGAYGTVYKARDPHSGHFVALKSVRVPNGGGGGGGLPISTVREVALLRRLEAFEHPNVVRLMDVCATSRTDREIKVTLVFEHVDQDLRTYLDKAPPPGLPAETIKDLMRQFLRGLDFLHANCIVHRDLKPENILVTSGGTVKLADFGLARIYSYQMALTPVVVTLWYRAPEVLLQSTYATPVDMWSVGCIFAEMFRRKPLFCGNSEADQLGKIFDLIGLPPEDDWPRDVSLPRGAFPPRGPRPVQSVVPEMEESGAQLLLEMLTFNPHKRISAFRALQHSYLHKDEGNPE
cdk4/D, sequence (P24385 whole entry, further chain): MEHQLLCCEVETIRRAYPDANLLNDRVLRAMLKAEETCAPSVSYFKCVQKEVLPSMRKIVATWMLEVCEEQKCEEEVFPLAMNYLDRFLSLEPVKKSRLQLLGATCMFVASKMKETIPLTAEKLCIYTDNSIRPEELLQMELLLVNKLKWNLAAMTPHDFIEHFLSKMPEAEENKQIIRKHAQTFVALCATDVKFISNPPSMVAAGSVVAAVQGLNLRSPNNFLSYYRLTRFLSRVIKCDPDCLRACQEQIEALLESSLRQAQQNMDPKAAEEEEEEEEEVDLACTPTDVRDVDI

cdk2/cyclinE = cdk2/cyclinE (Homo sapiens, UniProt P24941); assay: Cyclin-Dependent Kinase Assay cdk2/cyclinE
cdk2/cyclinA = cdk2/cyclinA (Homo sapiens, UniProt P24941); assay: Cyclin-Dependent Kinase Assay cdk2/cyclinA
cdc2/cyclinB = cdc2/cyclinB (Homo sapiens, UniProt P06493); assay: Cyclin-Dependent Kinase Assay cdc2/cyclinB
cdc2/cyclinB, sequence (P06493 whole entry): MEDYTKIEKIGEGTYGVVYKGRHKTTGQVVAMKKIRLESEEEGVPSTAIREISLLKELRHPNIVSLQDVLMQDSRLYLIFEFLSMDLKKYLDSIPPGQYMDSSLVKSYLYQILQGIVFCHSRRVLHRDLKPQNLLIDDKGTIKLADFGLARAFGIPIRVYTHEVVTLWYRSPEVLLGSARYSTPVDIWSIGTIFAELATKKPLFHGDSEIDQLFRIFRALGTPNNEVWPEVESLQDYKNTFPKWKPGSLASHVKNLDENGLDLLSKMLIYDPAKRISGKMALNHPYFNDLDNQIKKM
cdc2/cyclinB, sequence (P14635 whole entry, further chain): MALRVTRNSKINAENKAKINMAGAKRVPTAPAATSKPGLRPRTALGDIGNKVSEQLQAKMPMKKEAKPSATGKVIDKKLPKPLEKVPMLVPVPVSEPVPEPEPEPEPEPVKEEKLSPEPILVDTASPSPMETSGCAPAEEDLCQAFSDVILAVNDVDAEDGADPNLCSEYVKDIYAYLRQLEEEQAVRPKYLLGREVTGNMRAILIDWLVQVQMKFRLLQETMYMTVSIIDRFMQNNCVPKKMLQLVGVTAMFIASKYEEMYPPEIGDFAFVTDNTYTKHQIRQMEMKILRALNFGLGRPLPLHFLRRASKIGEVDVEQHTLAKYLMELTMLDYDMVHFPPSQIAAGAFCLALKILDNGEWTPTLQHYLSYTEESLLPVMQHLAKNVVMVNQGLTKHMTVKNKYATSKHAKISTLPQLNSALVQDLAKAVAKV

| SMILES | IC50 (Cdk5/p25; Table 1) | melting point | IC50 (cdk4/D; Table 1, read-out: cdk4/D IC50) | IC50 (cdk2/cyclinE; cdk2/E IC50, Table 1) | also measured |
| --- | --- | --- | --- | --- | --- |
| CCn1c(=O)ccc2cnc(Nc3ccc(F)cc3)nc21 [Example 88, 8-Ethyl-2-(4-fluorophenylamino)-8H-pyrido[2,3-d]pyrimidin-7-one] | 0.053 µM | 215 to 217 °C | – | – | IC50 (Cdk5/p25; Table 3): 0.032 µM; IC50 (cdk4/D; Table 3, read-out: Cdk4 IC50): 1.24 µM; IC50 (cdk2/cyclinE; Cdk2/E IC50, Table 3): 0.56 µM; IC50 (cdk2/cyclinA; Cdk2/A IC50, Table 3): 0.421 µM |
| CC1CCCN(c2ccc(Nc3ncc4ccc(=O)n(C5CCCCC5)c4n3)cc2)C1 (centres unmarked) [Example 175, 8-Cyclohexyl-2-[4-(3-methyl-piperidin-1-yl)-phenylamino]-8H-pyrido[2,3-d]pyrimidin-7-one] | 0.69 µM | 189 to 190 °C | 0.27 µM | 0.433 µM | IC50 (cdk2/cyclinA; cdk2/A IC50, Table 1): 0.711 µM |
| COc1ccc(Nc2ncc3ccc(=O)n(C(C)C)c3n2)cc1 [Example 111, 8-Isopropyl-2-(4-methoxy-phenylamino)-8H-pyrido[2,3-d]pyrimidin-7-one] | – | 153 to 155 °C | – | – | IC50 (Cdk5/p25; Table 3): 0.0098 µM; IC50 (cdk4/D; Table 3, read-out: Cdk4 IC50): 0.617 µM; IC50 (cdk2/cyclinE; Cdk2/E IC50, Table 3): 0.58 µM; IC50 (cdk2/cyclinA; Cdk2/A IC50, Table 3): 0.12 µM |
| O=c1ccc2cnc(Nc3ccc(N4CCC(CCCO)CC4)cc3)nc2n1C1CC2CCC1C2 (centres unmarked) [Example 214, 8-Bicyclo[2.2.1]hept-2-yl-2-{4-[4-(3-hydroxy-propyl)-piperidin-1-yl]-phenylamino}-8H-pyrido[2,3-d]pyrimidin-7-one] | 3.32 µM | 223 °C | 0.008 µM | 0.126 µM | IC50 (cdk2/cyclinA; cdk2/A IC50, Table 1): 0.205 µM |
| Cn1c(=O)ccc2cnc(Nc3ccccc3)nc21 [Example 61, 8-Methyl-2-phenylamino-8H-pyrido[2,3-d]pyrimidin-7-one] | – | 244 to 247 °C | – | – | IC50 (Cdk5/p25; Table 3): 0.089 µM; IC50 (cdk4/D; Table 3, read-out: Cdk4 IC50): 5.48 µM; IC50 (cdk2/cyclinE; Cdk2/E IC50, Table 3): 1.68 µM; IC50 (cdk2/cyclinA; Cdk2/A IC50, Table 3): 1.15 µM |
| O=c1ccc2cnc(Nc3ccc(N4CCCCC4)cc3)nc2n1C1CCOCC1 [Example 211, 2-(4-Piperidin-1-yl-phenylamino)-8-(tetrahydro-pyran-4-yl)-8H-pyrido[2,3-d]pyrimidin-7-one] | 0.336 µM | 254 to 255 °C | 0.153 µM | 7.6 µM | IC50 (cdk2/cyclinA; cdk2/A IC50, Table 1): 0.58 µM |
| CCN(CC)CCOc1ccc(Nc2ncc3ccc(=O)n(C4CC4)c3n2)cc1 [Example 134, 8-Cyclopropyl-2-[4-(2-diethylamino-ethoxy)-phenylamino]-8H-pyrido[2,3-d]pyrimidin-7-one] | 0.326 µM | 119 to 121 °C | 0.053 µM | – | – |
| O=c1ccc2cnc(Nc3ccc(N4CCC(O)CC4)cc3)nc2n1C1CCCC1 [Example 198, 8-Cyclopentyl-2-[4-(4-hydroxy-piperidin-1-yl)-phenylamino]-8H-pyrido[2,3-d]pyrimidin-7-one] | 0.019 µM | 216 to 217 °C | 0.015 µM | 0.044 µM | IC50 (cdc2/cyclinB): 0.118 µM |
| Cc1cc(C)n(-c2ccc(Nc3ncc4ccc(=O)n(C5CCCC5)c4n3)cc2)n1 [Example 195, 8-Cyclopentyl-2-[4-(3,5-dimethyl-pyrazol-1-yl)-phenylamino]-8H-pyrido[2,3-d]pyrimidin-7-one] | 0.156 µM | 169 to 171 °C | 0.133 µM | – | – |
| O=c1ccc2cnc(Nc3ccc(N4CCC(CCCO)CC4)cc3)nc2n1C1CCCC1 [Example 197, 8-Cyclopentyl-2-{4-[4-(3-hydroxy-propyl)-piperidin-1-yl]-phenylamino]-8H-pyrido[2,3-d]pyrimidin-7-one] | 0.127 µM | 208 to 209 °C | 0.0335 µM | 2.32 µM | IC50 (cdc2/cyclinB): 7.39 µM |
| O=c1ccc2cnc(Nc3ccc(N4CCC(CCO)CC4)cc3)nc2n1C1CCCC1 [Example 196] | 0.124 µM | 199 to 200 °C | 0.017 µM | 0.047 µM | – |
| CCn1c(=O)ccc2cnc(Nc3ccc(N4CCN(C)CC4)cc3)nc21 [Example 53, 8-Ethyl-2-[4-(4-methylpiperazin-1-yl)-phenylamino]-8H-pyrido[2,3-d]-pyrimidin-7-one] | 0.239 µM | 185 to 186 °C | – | – | – |
| O=c1ccc2cnc(Nc3cccc(N4CCCCC4)c3)nc2n1C1CCCC1 [Example 202, 8-Cyclopentyl-2-(3-piperidin-1-yl-phenylamino)-8H-pyrido[2,3-d]pyrimidin-7-one] | 0.0779 µM | 90 to 91 °C | 0.655 µM | – | – |
| CC(C)n1c(=O)ccc2cnc(Nc3ccc(O)cc3)nc21 [Example 624, 8-Isopropyl-2-(4-hydroxy-phenylamino)-8H-pyrido[2,3-]pyrimidin-7-one] | – | > 220 °C | – | – | IC50 (Cdk5/p25; Table 3): 0.015 µM; IC50 (cdk4/D; Table 3, read-out: Cdk4 IC50): 0.255 µM; IC50 (cdk2/cyclinE; Cdk2/E IC50, Table 3): 0.221 µM; IC50 (cdk2/cyclinA; Cdk2/A IC50, Table 3): 0.061 µM |
| CCn1c(=O)ccc2cnc(Nc3ccccc3)nc21 [Example 18, 8-Ethyl-2-phenylamino-8H-pyrido[2,3-d]pyrimidin-7-one] | 0.065 µM | 203 to 204 °C | – | – | – |
| CCn1c(=O)ccc2cnc(Nc3cccc(F)c3OC)nc21 [Example 91, 8-Ethyl-2-(3-fluoro-2-methoxyphenylamino)-8H-pyrido[2,3-d]pyrimidin-7-one] | 4.45 µM | 92 to 93 °C | – | – | – |

| SMILES | IC50 (Cdk5/p25; Table 1) | melting point | IC50 (cdk4/D; Table 1, read-out: cdk4/D IC50) | IC50 (cdk2/cyclinE; cdk2/E IC50, Table 1) | also measured |
| --- | --- | --- | --- | --- | --- |
| O=c1ccc2cnc(Nc3ccccc3)nc2n1Cc1ccccc1 [Example 35, 8-Benzyl-2-phenylamino-8H-pyrido[2,3-d]pyrimidin-7-one] | 0.31 µM | 215 to 216 °C | 0.94 µM | 33.8 µM | – |
| CCn1c(=O)c(C)cc2cnc(Nc3ccccc3)nc21 [Example 83, 8-Ethyl-6-methyl-2-phenylamino-8H-pyrido[2,3-d]pyrimidin-7-one] | 0.587 µM | 178 to 180 °C | – | – | – |
| O=c1ccc2cnc(Nc3ccc(-n4cccc4)cc3)nc2n1C1CCCC1 [Example 190, 8-Cyclopentyl-2-(4-pyrrol-1-yl-phenylamino)-8H-pyrido[2,3-d]pyrimidin-7-one] | 0.0312 µM | 189 to 190 °C | 0.136 µM | 0.12 µM | – |
| O=c1ccc2cnc(Nc3ccccc3)nc2n1C1CCCC1 [Example 108, 8-Cyclopentyl-2-phenylamino-8H-pyrido[2,3-d]pyrimidin-7-one] | 0.026 µM | 188 to 192 °C | – | – | – |
| CN(C)c1ccc(Nc2ncc3ccc(=O)n(C4CCCCC4)c3n2)cc1 [Example 147, 8-Cyclohexyl-2-(4-dimethylamino-phenylamino)-8H-pyrido[2,3-d]pyrimidin-7-one] | 0.024 µM | 204 to 205 °C | – | – | – |
| CCn1c(=O)ccc2cnc(Nc3ccccc3OC)nc21 [Example 92, 8-Ethyl-2-(2-methoxyphenylamino)-8H-pyrido[2,3-d]pyrimidin-7-one] | 1.68 µM | 126 to 128 °C | – | – | – |
| CCn1c(=O)ccc2cnc(Nc3ccc(OCCOC)cc3)nc21 [Example 57, 8-Ethyl-2-[4-(2-methoxyethoxy)phenylamino]-8H-pyrido[2,3-d]pyrimidin-7-one] | 0.218 µM | 169 to 171 °C | – | – | – |
| O=c1ccc2cnc(Nc3ccc(-c4ccccc4)cc3)nc2n1C1CC2CCC1C2 (centres unmarked) [Example 223, 8-Bicyclo[2.2.1]hept-2-yl-2-(biphenyl-4-ylamino)-8H-pyrido[2,3-d]pyrimidin-7-one] | 0.587 µM | 255 to 257 °C | – | 1.95 µM | IC50 (cdk2/cyclinA; cdk2/A IC50, Table 1): 18 µM |
| CCn1c(=O)ccc2cnc(Nc3ccc(N4CCOCC4)cc3)nc21 [Example 79, 8-Ethyl-2-(4-morpholin-4-yl-phenylamino)-8H-pyrido[2,3-d]pyrimidin-7-one] | 0.107 µM | 227 to 228 °C | – | – | – |
| CCn1c(=O)ccc2cnc(Nc3cccc(F)c3)nc21 [Example 89, 8-Ethyl-2-(3-fluorophenylamino)-8H-pyrido[2,3-d]pyrimidin-7-one] | 0.393 µM | 210 to 212 °C | – | – | – |
| CCn1c(=O)ccc2cnc(Nc3ccc(OC)c(F)c3)nc21 [Example 90, 8-Ethyl-2-(3-fluoro-4-methoxyphenylamino)-8H-pyrido[2,3-d]pyrimidin-7-one] | 0.029 µM | 196 to 198 °C | – | – | – |
| CN1CCN(c2ccc(Nc3ncc4ccc(=O)n(CCOCc5ccccc5)c4n3)cc2)CC1 [Example 140] | 5.17 µM | 183 to 191 °C | – | 23.6 µM | IC50 (cdk2/cyclinA; cdk2/A IC50, Table 1): 13.4 µM |
| CCn1c(=O)ccc2cnc(Nc3cccc(OC(F)(F)C(F)F)c3)nc21 [Example 54, 8-Ethyl-2-[3-(1,1,2,2-tetrafluoroethoxy)-phenylamino]-8H-pyrido[2,3-d]-pyrimidin-7-one] | 0.568 µM | 175 to 176 °C | – | – | – |
| O=c1ccc2cnc(Nc3ccccc3)nc2n1C1CCCCC1 [Example 131, 8-Cyclohexyl-2-phenylamino-8H1-pyrido[2,3-d]pyrimidin-7-one] | 0.015 µM | 202 to 204 °C | – | – | – |
| O=c1ccc2cnc(Nc3cccc(N4CCCCC4)c3)nc2n1C1CCCCC1 [Example 203, 8-Cyclohexyl-2-(3-piperidin-1-yl-phenylamino)-8H-pyrido[2,3-d]pyrimidin-7-one] | 0.0826 µM | 164 to 165 °C | 0.5 µM | – | – |
